Measurements from patent US10081630B2, “Radioactive halogen-labeled pyrido [1,2-A] benzimidazole derivative compound” (KYOTO UNIVERSITY, priority 2015, dated 2018).

Columns and labels:
[1] = test system: tau accumulated in the brain with AD; test: In vitro autoradiography using autopsied brain tissue of Alzheimer's disease patient; type: binding, human; conditions: for radioactivity accumulation in the brain tissue section of the frontal lobe / radioactivity accumulation in the brain tissue section of the temporal lobe: AD patient autopsied brain section, 370 kBq/mL, 2 hours room temperature; for nonspecific binding to the brain white matter: AD patient autopsied brain sections; for visualization of tau (autoradiography compared with tau and Aβ immunostaining): AD patient temporal lobe section, adjacent sections immunostained (AT8, BC05)
Protocol: (Evaluation 1) In Vitro Autoradiography Using Autopsied Brain Tissue of Alzheimer's Disease Patient (1) In Vitro Autoradiography
Autopsied brain tissue sections of an Alzheimer's disease (AD) patient (sections from a frontal lobe site and a temporal lobe site, 6 μm) were used, which were provided from Graduate School of Medicine, Kyoto University and National Cerebral and Cardiovascular Center Hospital. Deparaffinization treatment was performed by washing with xylene (15 min×2), ethanol (1 min×2), a 90 vol % aqueous ethanol solution (1 min×1), an 80 vol % aqueous ethanol solution (1 min×1), a 70 vol % aqueous ethanol solution (1 min×1), and purified water (2.5 min×2). A 10 vol % aqueous ethanol solution of each radioactive iodine-labeled BIP derivative compound (370 kBq/mL) obtained by the method shown in Example 7 was added thereto, and the tissue sections were incubated at room temperature for 2 hours. The tissue sections were washed with a 50 vol % aqueous ethanol solution (1 hr×1), then exposed to an imaging plate (BAS-SR2025 manufactured by Fujifilm Corp.), and analyzed using a bioimaging analyzer (bioimaging analyzer BAS-5000 manufactured by Fujifilm Corp.). Multi Gauge manufactured by Fujifilm Corp. was used in quantitative analysis.
FIGS. 5E and 5F show the results obtained using [^125I]BIP-NMe2. FIGS. 5G and 5H show the results obtained using [^125I]BIP-OMe. FIGS. 5I and 5J show the results obtained using [^125I]BIP-Me. FIGS. 5E, 5G, and 5I show the results obtained using the brain tissue section of the frontal lobe. FIGS. 5F, 5H, and 5J show the results obtained using the brain tissue section of the temporal lobe.
Tau and Aβ were immunostained using sections adjacent to the autopsied AD brain tissue sections used in autoradiography. An anti-phosphorylated tau monoclonal antibody (AT8, manufactured by Thermo Fisher Scientific Inc.) was used as a primary antibody in the immunostaining of tau, and an anti-Aβ1-42 monoclonal antibody (BC05, manufactured by Wako Pure Chemical Industries, Ltd.) was used as a primary antibody in the immunostaining of Aβ. Deparaffinization treatment was performed by washing with xylene (15 min×2), ethanol (1 min×2), a 90 vol % aqueous ethanol solution (1 min×1), an 80 vol % aqueous ethanol solution (1 min×1), a 70 vol % aqueous ethanol solution (1 min×1), and purified water (2.5 min×2). The antigens were retrieved by autoclaving (15 min) in a 0.01 mol/L citrate buffer solution (pH 6.0) and formic acid treatment (5 min). The tissue sections were washed with running water (5 min) and then washed with PBS-Tween 20 (2 min×1). The tissue sections were reacted with primary antibody solutions at room temperature for 1 hour and then washed with PBS-Tween 20 (5 min×3). The tissue sections were reacted with Histofine Simple Stain MAX-PO (MULTI) (manufactured by Nichirei Biosciences Inc.) at room temperature for 30 minutes and then washed with PBS-Tween 20 (3 min×3) and TBS (5 min×1). Finally, the tissue sections were reacted with a DAB solution at room temperature for 1 minute. The tissue sections were washed with distilled water (1 min×1) to terminate the reaction. The brain tissue sections were mounted on slides and then observed under a microscope (BZ-9000 manufactured by Keyence Corporation).
FIGS. 5A and 5B show the results obtained using the brain tissue section of the frontal lobe. FIGS. 5C and 5D show the results obtained using the brain tissue section of the temporal lobe. FIGS. 5A and 5C show the results of immunostaining with the antibody against tau. FIGS. 5B and 5D show the results of immunostaining with the antibody against Aβ.

[2] = Evaluation of in vivo radioactivity distribution in normal mouse; conditions: normal ddY male mice, tail vein; for radioactivity distribution, Blood / radioactivity distribution, Brain / radioactivity distribution, Heart / radioactivity distribution, Intestine / radioactivity distribution, Kidney / radioactivity distribution, Liver / radioactivity distribution, Lung / radioactivity distribution, Pancreas / radioactivity distribution, Spleen / radioactivity distribution, Stomach / radioactivity distribution, Thyroid gland: mean (SD)
Protocol: (Evaluation 2) Evaluation of In Vivo Radioactivity Distribution in Normal Mouse
Each compound of [^125I]BIP-NMe2, [^125I]BIP-OMe, and [^125I]BIP-Me synthesized according to the method shown in Example 7 was diluted with saline containing 10 vol % ethanol and 0.1 vol % Tween 80. Each radioactive iodine-labeled BIP derivative compound was administered to a group of 5-week-old ddY male mice (26 to 28 g; each group involved 5 mice) from the tail veins thereof at 19.6 to 29.4 kBq (100 μL) per mouse. After 2, 10, 30, or 60 minutes, the mice were slaughtered. After blood collection, the organs were taken out, and their weights and radioactivity were measured.
In Tables 2 to 4, the numerical values shown in the column “Time after administration” are means of % ID for the stomach and the thyroid gland and means of % ID/g for the other tissues with standard deviation (SD) shown in parenthesis.

## Cc1ccn2c(c1)nc1cc([125I])ccc12 [[^125I]BIP-Me, 7-[^125I]iodo-3-methylbenzo[4,5]imidazo[1,2-a]pyridine]
[1]
  radioactivity accumulation in the brain tissue section of the frontal lobe: none
  radioactivity accumulation in the brain tissue section of the temporal lobe: exhibited radioactivity accumulation in only the brain tissue section of the temporal lobe
  nonspecific binding to the brain white matter: low
  visualization of tau (autoradiography compared with tau and Aβ immunostaining): clearly visualizes tau accumulated in the brain with AD
[2]
  clearance from the brain: rapid clearance from the brain
  transfer to the brain early after administration: high transfer to the brain
[2]; 2 min after administration
  radioactivity distribution, Blood: 3.63(0.19) % ID/g
  radioactivity distribution, Brain: 4.28(0.50) % ID/g
  radioactivity distribution, Heart: 4.40(0.59) % ID/g
  radioactivity distribution, Intestine: 3.38(0.55) % ID/g
  radioactivity distribution, Kidney: 7.32(0.61) % ID/g
  radioactivity distribution, Liver: 19.7(2.89) % ID/g
  radioactivity distribution, Lung: 6.54(0.76) % ID/g
  radioactivity distribution, Pancreas: 3.85(0.39) % ID/g
  radioactivity distribution, Spleen: 4.22(0.43) % ID/g
  radioactivity distribution, Stomach: 2.68(0.25) % ID
  radioactivity distribution, Thyroid gland: 0.06(0.03) % ID
[2]; 10 min after administration
  radioactivity distribution, Blood: 2.37(0.22) % ID/g
  radioactivity distribution, Brain: 0.94(0.17) % ID/g
  radioactivity distribution, Heart: 1.61(0.19) % ID/g
  radioactivity distribution, Intestine: 14.2(5.56) % ID/g
  radioactivity distribution, Kidney: 6.75(0.83) % ID/g
  radioactivity distribution, Liver: 13.7(1.67) % ID/g
  radioactivity distribution, Lung: 2.37(0.31) % ID/g
  radioactivity distribution, Pancreas: 1.38(0.29) % ID/g
  radioactivity distribution, Spleen: 1.94(0.29) % ID/g
  radioactivity distribution, Stomach: 6.52(1.23) % ID
  radioactivity distribution, Thyroid gland: 0.03(0.02) % ID
[2]; 30 min after administration
  radioactivity distribution, Blood: 1.53(0.52) % ID/g
  radioactivity distribution, Brain: 0.14(0.03) % ID/g
  radioactivity distribution, Heart: 0.66(0.10) % ID/g
  radioactivity distribution, Intestine: 19.5(2.03) % ID/g
  radioactivity distribution, Kidney: 4.05(1.19) % ID/g
  radioactivity distribution, Liver: 7.32(0.71) % ID/g
  radioactivity distribution, Lung: 1.14(0.11) % ID/g
  radioactivity distribution, Pancreas: 0.50(0.08) % ID/g
  radioactivity distribution, Spleen: 0.60(0.13) % ID/g
  radioactivity distribution, Stomach: 7.05(2.50) % ID
  radioactivity distribution, Thyroid gland: 0.02(0.00) % ID
[2]; 60 min after administration
  radioactivity distribution, Blood: 0.77(0.12) % ID/g
  radioactivity distribution, Brain: 0.04(0.00) % ID/g
  radioactivity distribution, Heart: 0.36(0.07) % ID/g
  radioactivity distribution, Intestine: 28.7(5.09) % ID/g
  radioactivity distribution, Kidney: 2.19(1.23) % ID/g
  radioactivity distribution, Liver: 4.69(0.54) % ID/g
  radioactivity distribution, Lung: 0.65(0.11) % ID/g
  radioactivity distribution, Pancreas: 0.40(0.24) % ID/g
  radioactivity distribution, Spleen: 0.36(0.10) % ID/g
  radioactivity distribution, Stomach: 7.43(1.29) % ID
  radioactivity distribution, Thyroid gland: 0.01(0.00) % ID

## COc1ccn2c(c1)nc1cc([125I])ccc12 [[^125I]BIP-OMe, 7-[^125I]iodo-3-methoxypyrido[1,2-a]benzimidazole]
[1]
  radioactivity accumulation in the brain tissue section of the frontal lobe: none
  radioactivity accumulation in the brain tissue section of the temporal lobe: exhibited radioactivity accumulation in only the brain tissue section of the temporal lobe
  nonspecific binding to the brain white matter: low
  visualization of tau (autoradiography compared with tau and Aβ immunostaining): clearly visualizes tau accumulated in the brain with AD
[2]
  clearance from the brain: rapid clearance from the brain
  transfer to the brain early after administration: high transfer to the brain
[2]; 2 min after administration
  radioactivity distribution, Blood: 5.41(0.40) % ID/g
  radioactivity distribution, Brain: 4.30(0.41) % ID/g
  radioactivity distribution, Heart: 5.17(0.27) % ID/g
  radioactivity distribution, Intestine: 2.94(0.15) % ID/g
  radioactivity distribution, Kidney: 8.66(0.73) % ID/g
  radioactivity distribution, Liver: 17.8(3.98) % ID/g
  radioactivity distribution, Lung: 6.09(0.34) % ID/g
  radioactivity distribution, Pancreas: 4.38(0.30) % ID/g
  radioactivity distribution, Spleen: 3.60(1.10) % ID/g
  radioactivity distribution, Stomach: 2.30(0.33) % ID
  radioactivity distribution, Thyroid gland: 0.10(0.05) % ID
[2]; 10 min after administration
  radioactivity distribution, Blood: 3.39(0.12) % ID/g
  radioactivity distribution, Brain: 0.71(0.14) % ID/g
  radioactivity distribution, Heart: 1.94(0.18) % ID/g
  radioactivity distribution, Intestine: 8.99(1.43) % ID/g
  radioactivity distribution, Kidney: 7.38(1.46) % ID/g
  radioactivity distribution, Liver: 16.2(1.80) % ID/g
  radioactivity distribution, Lung: 3.33(0.24) % ID/g
  radioactivity distribution, Pancreas: 1.59(0.18) % ID/g
  radioactivity distribution, Spleen: 3.16(0.18) % ID/g
  radioactivity distribution, Stomach: 5.47(0.88) % ID
  radioactivity distribution, Thyroid gland: 0.04(0.02) % ID
[2]; 30 min after administration
  radioactivity distribution, Blood: 2.24(0.27) % ID/g
  radioactivity distribution, Brain: 0.17(0.02) % ID/g
  radioactivity distribution, Heart: 0.99(0.08) % ID/g
  radioactivity distribution, Intestine: 16.8(4.30) % ID/g
  radioactivity distribution, Kidney: 5.74(2.30) % ID/g
  radioactivity distribution, Liver: 7.25(1.28) % ID/g
  radioactivity distribution, Lung: 1.76(0.11) % ID/g
  radioactivity distribution, Pancreas: 0.86(0.22) % ID/g
  radioactivity distribution, Spleen: 1.07(0.08) % ID/g
  radioactivity distribution, Stomach: 6.62(1.28) % ID
  radioactivity distribution, Thyroid gland: 0.01(0.00) % ID
[2]; 60 min after administration
  radioactivity distribution, Blood: 1.27(0.15) % ID/g
  radioactivity distribution, Brain: 0.08(0.03) % ID/g
  radioactivity distribution, Heart: 0.52(0.08) % ID/g
  radioactivity distribution, Intestine: 20.1(4.03) % ID/g
  radioactivity distribution, Kidney: 2.20(1.20) % ID/g
  radioactivity distribution, Liver: 4.61(0.35) % ID/g
  radioactivity distribution, Lung: 1.21(0.30) % ID/g
  radioactivity distribution, Pancreas: 0.53(0.13) % ID/g
  radioactivity distribution, Spleen: 0.63(0.10) % ID/g
  radioactivity distribution, Stomach: 5.34(1.23) % ID
  radioactivity distribution, Thyroid gland: 0.01(0.00) % ID
